Experimental data reported in patent publication US8501713B2, “Drug combinations for the treatment of duchenne muscular dystrophy” (Summit Corporation PLC, priority 2007, dated 2013).

System: Utrophin A promoter linked to a luciferase reporter gene
Assay: Luciferase reporter assay (murine H2K cells)
Type: cell-based
Conditions: Mus musculus, H2K mdx, luciferase level relative to control; H2K/mdx/Utro A reporter cells; compound 10 μM final concentration; read-out: Activity
Experimental: 1. Luciferase Reporter Assay (Murine H2K Cells)
The cell line used for the screen is an immortalized mdx mouse H2K cell line that has been stably transfected with a plasmid containing […] fragment of the Utrophin A promoter including the first untranslated exon linked to a luciferase reporter gene. Under conditions of low temperature and interferon containing media, the cells remain as myoblasts. These are plated into 96 well plates and cultured in the presence of compound for three days. The level of luciferase is then determined by cell lysis and reading of the light output from the expressed luciferase gene utilising a plate luminometer.
H2K/mdx/Utro A reporter Cell Line Maintenance
The cells were grown at 33° C. in the presence of 10% CO2. To remove the myoblasts for platting, they were incubated with Trypsin EDTA until the monolayer started to detach.
The plates were then incubated at 33° C. in the presence of 10% CO2 for 24 hrs. Compounds were dosed by adding 10 μl of diluted compound to each well giving a final concentration of 10 μM. The plates were then incubated for a further 48 hrs. Cells were then lysed in situ following the manufacture's protocols (Promega Steady-Glo Luciferase Assay System (E2520). Then counted for 10 seconds using a plate luminometer (Victor1420).
Compounds for screening were stored at −20° C. as 10 mM stocks in 100% DMSO until required.
Biological activity as assessed using the luciferase reporter assay in murine H2K cells, and is classified as follows: […]

| Compound | activity at 10 µM [%] |
| --- | --- |
| CCN(CC)c1ccc(-c2nc3cc(NC(=O)c4cc(Cl)cc(Cl)c4)ccc3o2)cc1 [Example 70, 3,5-dichloro-N-(2-(4-(diethylamino)phenyl)benzo[d]oxazol-5-yl)benzamide] | < 200 |
| CCN(CC)c1ccc(-c2nc3cc(NC(=O)c4ccc(F)cc4)ccc3o2)cc1 [Example 71, N-(2-(4-(diethylamino)phenyl)benzo[d]oxazol-5-yl)-4-fluorobenzamide] | < 200 |
| CCN(CC)c1ccc(-c2nc3cc(NC(=O)c4ccc(-c5ccccc5)cc4)ccc3o2)cc1 [Example 72, N-(2-(4-(diethylamino)phenyl)benzo[d]oxazol-5-yl)biphenyl-4-carboxamide] | < 200 |
| CCN(CC)c1ccc(-c2nc3cc(NC(=O)Cc4ccccc4)ccc3o2)cc1 [Example 73, N-(2-(4-(diethylamino)phenyl)benzo[d]oxazol-5-yl)-2-phenylacetamide] | 201 to 300 |
| CCN(CC)c1ccc(-c2nc3cc(NC(=O)CCc4ccccc4)ccc3o2)cc1 [Example 74, N-(2-(4-(diethylamino)phenyl)benzo[d]oxazol-5-yl)-3-phenylpropanamide] | < 200 |
| CCC(=O)Nc1ccc2oc(-c3ccc(N(CC)CC)cc3)nc2c1 [Example 75, N-(2-(4-(diethylamino)phenyl)benzo[d]oxazol-5-yl)propionamide] | 201 to 300 |
| CCCC(=O)Nc1ccc2oc(-c3ccc(N(CC)CC)cc3)nc2c1 [Example 76, N-(2-(4-(diethylamino)phenyl)benzo[d]oxazol-5-yl)butyramide] | < 200 |
| CCCCC(=O)Nc1ccc2oc(-c3ccc(N(CC)CC)cc3)nc2c1 [Example 77, N-(2-(4-(diethylamino)phenyl)benzo[d]oxazol-5-yl)pentanamide] | 201 to 300 |
| CCN(CC)c1ccc(-c2nc3cc(NC(=O)C(C)C)ccc3o2)cc1 [Example 78, N-(2-(4-(diethylamino)phenyl)benzo[d]oxazol-5-yl)isobutyramide] | < 200 |
| CCN(CC)c1ccc(-c2nc3cc(NC(=O)c4cccs4)ccc3o2)cc1 [Example 79, N-(2-(4-(diethylamino)phenyl)benzo[d]oxazol-5-yl)thiophene-2-carboxamide] | < 200 |
| CCCc1ccc2oc(-c3cccc(C(=O)O)c3)nc2c1 [Example 80, 3-(5-propylbenzo[d]oxazol-2-yl)benzoic acid] | < 200 |
| O=C(Nc1ccc2oc(-c3cccnc3)nc2c1)c1cccnc1 [Example 81, N-(2-(pyridin-3-yl)benzo[d]oxazol-5-yl)nicotinamide] | < 200 |
| Nc1ccc(-c2nc3cc(N)ccc3o2)c(O)c1 [Example 82, 5-amino-2-(5-aminobenzo[d]oxazol-2-yl)phenol] | 201 to 300 |
| COc1ccc(C(=O)Nc2ccc3oc(-c4ccc(OC)cc4)nc3c2)cc1 [Example 83, 4-methoxy-N-(2-(4-methoxyphenyl)benzo[d]oxazol-5-yl)benzamide] | < 200 |
| CCS(=O)(=O)c1ccc2oc(-c3ccccc3)nc2c1 [Example 84, 5-(ethylsulfonyl)-2-phenylbenzo[d]oxazole] | 201 to 300 |
| c1ccc(-c2ccc3oc(-c4ccccc4)nc3c2)cc1 [Example 85, 2,5-diphenylbenzo[d]oxazole] | 301 to 400 |
| c1ccc(-c2nc3c(ccc4ccccc43)o2)cc1 [Example 86, 2-phenylnaphtho[1,2-d]oxazole] | 301 to 400 |
| O=C(Nc1ccc2oc(-c3ccc(Cl)cc3)nc2c1)c1ccncc1 [Example 87, N-(2-(4-chlorophenyl)benzo[d]oxazol-5-yl)isonicotinamide] | < 200 |

| Compound | activity at 10 µM [%] |
| --- | --- |
| O=C(Nc1ccc2oc(-c3ccc(Cl)cc3)nc2c1)c1ccccc1 [Example 88, N-(2-(4-chlorophenyl)benzo[d]oxazol-5-yl)benzamide] | < 200 |
| O=C(Nc1ccc2oc(-c3ccc(Cl)cc3)nc2c1)c1ccc(Cl)cc1 [Example 89, 4-chloro-N-(2-(4-chlorophenyl)benzo[d]oxazol-5-yl)benzamide] | < 200 |
| Cc1ccc(C(=O)Nc2ccc3oc(-c4ccc(Cl)cc4)nc3c2)cc1 [Example 90, N-(2-(4-chlorophenyl)benzo[d]oxazol-5-yl)-4-methylbenzamide] | < 200 |
| COc1ccc(C(=O)Nc2ccc3oc(-c4ccc(Cl)cc4)nc3c2)cc1 [Example 91, N-(2-(4-chlorophenyl)benzo[d]oxazol-5-yl)-4-methoxybenzamide] | < 200 |
| COc1ccccc1C(=O)Nc1ccc2oc(-c3ccc(Cl)cc3)nc2c1 [Example 92, N-(2-(4-chlorophenyl)benzo[d]oxazol-5-yl)-2-methoxybenzamide] | < 200 |
| CN(C)c1ccc(C(=O)Nc2ccc3oc(-c4ccc(Cl)cc4)nc3c2)cc1 [Example 93, N-(2-(4-chlorophenyl)benzo[d]oxazol-5-yl)-4-(dimethylamino)benzamide] | < 200 |
| O=C(Nc1ccc2oc(-c3ccc(Cl)cc3)nc2c1)c1ccc(C(F)(F)F)cc1 [Example 94, N-(2-(4-chlorophenyl)benzo[d]oxazol-5-yl)-4-(trifluoromethyl)benzamide] | < 200 |
| O=C(Nc1ccc2oc(-c3ccc(Cl)cc3)nc2c1)c1cc(Cl)cc(Cl)c1 [Example 95, 3,5-dichloro-N-(2-(4-chlorophenyl)benzo[d]oxazol-5-yl)benzamide] | < 200 |
| O=C(Nc1ccc2oc(-c3ccc(Cl)cc3)nc2c1)c1ccc(F)cc1 [Example 96, N-(2-(4-chlorophenyl)benzo[d]oxazol-5-yl)-4-fluorobenzamide] | < 200 |
| O=C(Cc1ccccc1)Nc1ccc2oc(-c3ccc(Cl)cc3)nc2c1 [Example 97, N-(2-(4-chlorophenyl)benzo[d]oxazol-5-yl)-2-phenylacetamide] | 201 to 300 |
| O=C(CCc1ccccc1)Nc1ccc2oc(-c3ccc(Cl)cc3)nc2c1 [Example 98, N-(2-(4-chlorophenyl)benzo[d]oxazol-5-yl)-3-phenylpropanamide] | < 200 |
| CCCC(=O)Nc1ccc2oc(-c3ccc(Cl)cc3)nc2c1 [Example 99, N-(2-(4-chlorophenyl)benzo[d]oxazol-5-yl)butyramide] | > 401 |
| CCCCC(=O)Nc1ccc2oc(-c3ccc(Cl)cc3)nc2c1 [Example 100, N-(2-(4-chlorophenyl)benzo[d]oxazol-5-yl)pentanamide] | 201 to 300 |
| CC(C)C(=O)Nc1ccc2oc(-c3ccc(Cl)cc3)nc2c1 [Example 101, N-(2-(4-chlorophenyl)benzo[d]oxazol-5-yl)isobutyramide] | > 401 |
| O=C(Nc1ccc2oc(-c3ccc(Cl)cc3)nc2c1)c1ccco1 [Example 102, N-(2-(4-chlorophenyl)benzo[d]oxazol-5-yl)furan-2-carboxamide] | < 200 |
| O=C(Nc1ccc2oc(-c3ccc(Cl)cc3)nc2c1)c1cccs1 [Example 103, N-(2-(4-chlorophenyl)benzo[d]oxazol-5-yl)thiophene-2-carboxamide] | < 200 |
| Cc1cc2nc(-c3ccc(N)cc3O)[nH]c2cc1C [Example 104, 5-amino-2-(5,6-dimethyl-1H-benzo[d]imidazol-2-yl)phenol] | 201 to 300 |
| Cc1cc(-c2nc3ccccc3[nH]2)ccc1[N+](=O)[O-] [Example 105, 2-(3-methyl-4-nitrophenyl)-1H-benzo[d]imidazole] | > 401 |
